Measurements as given in patent publication US20220106289A1, “NLRP3 INHIBITORS” (INFLAZOME LIMITED, priority 2018, published 2022).
Counter-ions that a name gives are not always drawn.

Key:
NLRP3 [1] = target: T1, NLRP3 (Homo sapiens, UniProt Q96P20); assay: Human whole blood IL-1β release assay (LPS + nigericin, AlphaLisa); format: cell-based; design: Human whole blood in Li-heparin tubes was obtained from healthy donors; from tissue; host or cells: human whole blood from healthy donors; settings: NLRP3 inhibitory activity, 1 μg/ml LPS, 10 μM nigericin, read-out: HWB IC50
T1 sequence (Q96P20 whole entry): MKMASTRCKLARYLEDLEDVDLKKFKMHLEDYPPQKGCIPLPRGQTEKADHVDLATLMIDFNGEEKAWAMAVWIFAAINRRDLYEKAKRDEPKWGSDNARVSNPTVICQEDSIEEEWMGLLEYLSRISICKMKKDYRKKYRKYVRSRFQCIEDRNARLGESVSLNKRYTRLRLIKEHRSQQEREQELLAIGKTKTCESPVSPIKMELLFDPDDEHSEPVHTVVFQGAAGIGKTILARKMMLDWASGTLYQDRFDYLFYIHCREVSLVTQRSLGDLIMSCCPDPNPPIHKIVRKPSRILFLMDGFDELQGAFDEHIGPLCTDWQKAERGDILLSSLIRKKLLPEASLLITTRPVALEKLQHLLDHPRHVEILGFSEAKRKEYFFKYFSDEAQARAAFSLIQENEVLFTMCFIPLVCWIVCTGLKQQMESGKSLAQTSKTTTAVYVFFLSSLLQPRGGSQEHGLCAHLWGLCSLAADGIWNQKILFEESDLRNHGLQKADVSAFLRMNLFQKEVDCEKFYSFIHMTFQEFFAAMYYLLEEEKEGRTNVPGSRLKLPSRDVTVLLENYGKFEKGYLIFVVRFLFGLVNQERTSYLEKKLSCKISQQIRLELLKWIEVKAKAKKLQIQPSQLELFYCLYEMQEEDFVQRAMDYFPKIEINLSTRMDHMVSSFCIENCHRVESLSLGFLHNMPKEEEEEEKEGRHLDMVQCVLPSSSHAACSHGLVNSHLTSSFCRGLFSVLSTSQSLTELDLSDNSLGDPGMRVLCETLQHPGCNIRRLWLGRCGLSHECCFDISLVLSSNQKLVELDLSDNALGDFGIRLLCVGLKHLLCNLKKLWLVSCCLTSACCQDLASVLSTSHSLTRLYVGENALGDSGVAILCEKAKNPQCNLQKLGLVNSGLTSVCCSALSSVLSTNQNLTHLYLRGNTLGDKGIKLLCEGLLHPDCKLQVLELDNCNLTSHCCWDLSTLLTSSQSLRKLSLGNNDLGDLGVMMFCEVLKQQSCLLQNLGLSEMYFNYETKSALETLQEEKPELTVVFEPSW
Method: For systemic delivery, the ability to inhibit NLRP3 when the compounds are present within the bloodstream is of great importance. For this reason, the NLRP3 inhibitory activity of a number of compounds in human whole blood was investigated in accordance with the following protocol. Human whole blood in Li-heparin tubes was obtained from healthy donors from a volunteer donor panel. • 1. […] Incubate for 3 hrs at 37° C., 5% CO2 • 4. Add 10 μl nigericin (Sigma #N7143) (10 μM FAC) to all wells • 5. Incubate for 1 hr at 37° C., 5% CO2 • 6. At the end of the incubation period, spin plates at 300×g for 5 mins to pellet cells and remove 20 μl of supernatant and add to 96-well v-bottom plates for IL-1β analysis (note: these plates containing the supernatants can be stored at -80° C. to be analysed at a later date) • 7. IL-1β was measured according to the manufacturer protocol (Perkin Elmer-AlphaLisa IL-1 Kit A[…]-5000) • 8.

NLRP3 [2] = target: T1, NLRP3; assay: THP-1 cells pyroptosis assay (LPS + nigericin, resazurin read-out); format: cell-based; design: Seed THP-1 cells (25,000 cells/well) containing 1.0 μg/ml LPS; host or cells: THP-1 cells; settings: NLRP3 inhibitory activity, 1 μg/ml LPS, 5 μM nigericin
Method: The cells were routinely passaged and grown to confluency (˜10^6 cells/ml). On the day of the experiment, THP-1 cells were harvested and resuspended into RPMI medium (without FBS). The cells were then counted and viability (>90%) checked by Trypan blue (Sigma #T8154). […] To this diluted cell solution was added LPS (Sigma #L4524) to give a 1 μg/ml Final Assay Concentration (FAC). 40 μl of the final preparation was aliquoted into each well of a 96-well plate. The plate thus prepared was used for compound screening. The following method step-by-step assay was followed for compound screening. • 1. […] Incubate for 3 hrs at 37° C., 5% CO2 • 4. Add 5 μl nigericin (Sigma #N7143) (FAC 5 μM) to all wells • 5. Incubate for 1 hr at 37° C., 5% CO2 • 6. At the end of the incubation period, spin plates at 300×g for 3 mins and remove supernatant • 7. Then add 50 μl of resazurin (Sigma #R7017) (FAC 100 μM resazurin in RPMI medium without FBS) and incubate plates for a further 1-2 hrs at 37° C. and 5% CO2 • 8.

Row | Structure (SMILES) | IC50 (NLRP3 [1]) [µM] | IC50 (NLRP3 [2]) [µM]
1 | CC(C)n1cc(S(=O)(=O)NC(=O)Nc2c3c(c(Br)c4c2CCC4)CCC3)cn1 [Example 36, N-((8-Bromo-1,2,3,5,6,7-hexahydro-s-indacen-4-yl)carbamoyl)-1-isopropyl-1H-pyrazole-4-sulfonamide] | 5 to 10 | < 0.25
2 | CC(C)(CN1CCCC1)n1ccc(S(=O)(=O)NC(=O)Nc2c3c(cc4c2CCC4)CCC3)n1 [Example 65, N-((1,2,3,5,6,7-Hexahydro-s-indacen-4-yl)carbamoyl)-1-(2-methyl-1-(pyrrolidin-1-yl)propan-2-yl)-1H-pyrazole-3-sulfonamide, sodium salt] | 0.25 to 0.5 | < 0.25
3 | CC(C)c1cccc(C(C)C)c1NC(=O)NS(=O)(=O)c1cnn(C(C)C)c1 [Example 69, N-((2,6-Diisopropylphenyl)carbamoyl)-1-isopropyl-1H-pyrazole-4-sulfonamide] | 1 to 5 | 0.5 to 1
4 | CC(C)n1ccc(S(=N)(=O)NC(=O)Cc2c3c(cc4c2CCC4)CCC3)n1 (stereo not drawn) [Example 24, 2-(1,2,3,5,6,7-Hexahydro-s-indacen-4-yl)-N-(1-isopropyl-1H-pyrazole-3-sulfonimidoyl)acetamide] | > 10 | 1 to 5
5 | Cc1cc(CN(C)C)cc(S(=O)(=O)NC(=O)Nc2c3c(cc4c2CCC4)CCC3)c1 [Example 57, 3-((Dimethylamino)methyl)-N-((1,2,3,5,6,7-hexahydro-s-indacen-4-yl)carbamoyl)-5-methylbenzenesulfonamide, sodium salt] | 1 to 5 | < 0.25
6 | CC(C)n1ncc(S(=O)(=O)NC(=O)Nc2c3c(cc4c2CCC4)CCC3)n1 [Example 48, N-((1,2,3,5,6,7-Hexahydro-s-indacen-4-yl)carbamoyl)-2-isopropyl-2H-1,2,3-triazole-4-sulfonamide] | 1 to 5 | < 0.25
7 | COC(C)(C)c1cc(S(=O)(=O)NC(=O)Nc2c(C(C)C)cccc2C(C)C)nn1C [Example 81, N-((2,6-Diisopropylphenyl)carbamoyl)-5-(2-methoxypropan-2-yl)-1-methyl-1H-pyrazole-3-sulfonamide] | 0.25 to 0.5 | 0.25 to 0.5
8 | CC(C)n1ccc(S(=O)(=O)NC(=O)Nc2c3c(c(Cl)c4c2CCC4)CCC3)n1 [Example 35, N-((8-Chloro-1,2,3,5,6,7-hexahydro-s-indacen-4-yl)carbamoyl)-1-isopropyl-1H-pyrazole-3-sulfonamide] | 5 to 10 | < 0.25
9 | CC(C)n1nncc1S(=O)(=O)NC(=O)Nc1c2c(cc3c1CCC3)CCC2 [Example 47, N-((1,2,3,5,6,7-Hexahydro-s-indacen-4-yl)carbamoyl)-1-isopropyl-1H-1,2,3-triazole-5-sulfonamide] | 1 to 5 | < 0.25
10 | CC(C)n1ccc(S(=O)(=O)NC(=O)Nc2c3c(cc4c2CCC4=O)CCC3)n1 [Example 31, 1-isopropyl-N-((1-oxo-1,2,3,5,6,7-hexahydro-s-indacen-4-yl)carbamoyl)-1H-pyrazole-3-sulfonamide, sodium salt] | 5 to 10 | 1 to 5
11 | CC(C)n1ccc(S(=O)(=O)NC(=O)Nc2c3c(c(F)c4c2CCC4)CCC3)n1 [Example 61, N-((8-Fluoro-1,2,3,5,6,7-hexahydro-s-indacen-4-yl)carbamoyl)-1-isopropyl-1H-pyrazole-3-sulfonamide, sodium salt] | 0.5 to 1 | < 0.25
12 | CC(C)c1cc(F)cc(C(C)C)c1CC(=O)NS(=O)(=O)c1ccc2ccccc2c1 [Example 96, 2-(4-Fluoro-2,6-diisopropylphenyl)-1-(2-naphthylsulfonylamino)-1-ethanone] | – | 1 to 5
13 | CC(C)c1cc(F)cc(C(C)C)c1CC(=O)NS(=O)(=O)c1cc(C(C)(C)O)n(C(C)C)n1 [Example 29, 2-(4-Fluoro-2,6-diisopropylphenyl)-N-((5-(2-hydroxypropan-2-yl)-1-isopropyl-1H-pyrazol-3-yl)sulfonyl)acetamide] | – | 5 to 10
14 | Cc1nn(C)cc1S(=O)(=O)NC(=O)Nc1c2c(cc3c1CCC3)CCC2 [Example 80, N-((1,2,3,5,6,7-Hexahydro-s-indacen-4-yl)carbamoyl)-1,3-dimethyl-1H-pyrazole-4-sulfonamide, sodium salt] | – | 0.5 to 1
15 | CC(C)c1cc(F)cc2c1C(C(=O)NS(=O)(=O)c1cc(C(=O)N(C)C)n(C)n1)CC2(C)C (stereo not drawn) [Example 11, 3-(N-(5-Fluoro-7-isopropyl-3,3-dimethyl-2,3-dihydro-1H-indene-1-carbonyl)sulfamoyl)-N,N,1-trimethyl-1H-pyrazole-5-carboxamide] | – | 5 to 10
16 | CC(C)c1cc(F)cc(C(C)C)c1CC(=O)NS(=O)(=O)c1cnc(C(C)(C)O)s1 [Example 27, 2-(4-Fluoro-2,6-diisopropylphenyl)-N-((2-(2-hydroxypropan-2-yl)thiazol-5-yl)sulfonyl)acetamide] | – | 1 to 5
17 | Cc1cc(Br)cc(CC(=O)NS(=O)(=O)c2cc(C(C)(C)O)co2)c1 [Example 94, 2-(3-Bromo-5-methylphenyl)-N-((4-(2-hydroxypropan-2-yl)furan-2-yl)sulfonyl)acetamide] | – | 1 to 5
18 | COc1cc(-c2cc(F)cc(C(C)C)c2CCC(=O)NS(=O)(=O)c2cc(C(C)(C)O)cs2)ccn1 [Example 5, 3-(4-Fluoro-2-isopropyl-6-(2-methoxypyridin-4-yl)phenyl)-N-((4-(2-hydroxypropan-2-yl)thiophen-2-yl)sulfonyl)propanamide] | – | 5 to 10
19 | CC(C)(O)c1coc(S(=O)(=O)NC(=O)Cc2cc(Cl)cc(C(F)(F)F)c2)c1 [Example 92, 2-(3-Chloro-5-(trifluoromethyl)phenyl)-N-((4-(2-hydroxypropan-2-yl)furan-2-yl)sulfonyl)acetamide] | – | 5 to 10
20 | CC(C)c1cc(F)cc2c1C(C(=O)NS(=O)(=O)c1cnn(C3CC3)c1)CC2(C)C (stereo not drawn) [Example 7, N-((1-Cyclopropyl-1H-pyrazol-4-yl)sulfonyl)-5-fluoro-7-isopropyl-3,3-dimethyl-2,3-dihydro-1H-indene-1-carboxamide] | – | 5 to 10
21 | CCOC(=O)CNC(=O)Nc1c2c(cc(C)c1-c1ccnc(OC3CCN(C)CC3)c1)CCC2 [Example 97, Ethyl 2-(3-(6-methyl-5-(2-((1-methylpiperidin-4-yl)oxy)pyridin-4-yl)-2,3-dihydro-1H-inden-4-yl)ureido)acetate] | – | 1 to 5
22 | CC(C)OS(=O)(=O)NC(=O)Nc1c2c(cc3c1CCC3)CCC2 [Example 87, Isopropyl (1,2,3,5,6,7-hexahydro-s-indacen-4-yl)carbamoylsulfamate, sodium salt] | – | 1 to 5
23 | CC(C)c1cc(F)cc(C(C)C)c1CC(=O)NS(=O)(=O)c1ccn(C(C)C)n1 [Example 26, 2-(4-Fluoro-2,6-diisopropylphenyl)-N-((1-isopropyl-1H-pyrazol-3-yl)sulfonyl)acetamide] | – | 1 to 5
24 | CC(C)c1cc(-c2ccccc2)cc(C(C)C)c1NC(=O)NS(=O)(=O)c1ccn(C(C)C)n1 [Example 73, N-((3,5-Diisopropyl-[1,1′-biphenyl]-4-yl)carbamoyl)-1-isopropyl-1H-pyrazole-3-sulfonamide] | – | 5 to 10
25 | CC(C)(O)c1coc(S(=O)(=O)NC(=O)Cn2ncc3ccccc32)c1 [Example 89, N-((4-(2-Hydroxypropan-2-yl)furan-2-yl)sulfonyl)-2-(1H-indazol-1-yl)acetamide] | – | 1 to 5
26 | CC(C)c1cc(F)cc2c1C(C(=O)NS(=O)(=O)c1ccn(C(C)C)n1)CC2(C)C (stereo not drawn) [Example 10, 5-Fluoro-7-isopropyl-N-((1-isopropyl-1H-pyrazol-3-yl)sulfonyl)-3,3-dimethyl-2,3-dihydro-1H-indene-1-carboxamide, potassium salt (rotamer P2)] | – | 5 to 10
27 | COc1cc(-c2ccc3c(c2NC(=O)N[S+]([O-])c2ccn(C(C)C)n2)CCC3)ccn1 (stereo not drawn) [Example 23, 1-Isopropyl-N-((5-(2-methoxypyridin-4-yl)-2,3-dihydro-1H-inden-4-yl)carbamoyl)-1H-pyrazole-3-sulfinamide] | – | 1 to 5
28 | CC(C)c1cc(F)cc(C(C)C)c1CC(=O)NS(=O)(=O)c1cc(C(C)(C)O)n(C)n1 [Example 32, 2-(4-Fluoro-2,6-diisopropylphenyl)-N-((5-(2-hydroxypropan-2-yl)-1-methyl-1H-pyrazol-3-yl)sulfonyl)acetamide, ammonium salt] | – | 1 to 5
